# Results reported in patent publication US9901618B2, “Cell-permeable peptide system for treating diseases caused by glutamate excitotoxicity” (priority 2014, dated 2018).
# Entries after “also recorded” stand apart in the source; their conditions may differ.
# Tests used:
# [1] = tested on: presynaptic release of glutamate; test: Glutamate ([3H]D-Asp) release from superfused cortical synaptosomes; type: cell-based, mouse; conditions: for exocytotic release of [3H] D-Asp vs. control: C57/BL6 cortical synaptosomes, 8 mM KCl 90 s, 100 μM NMDA 10 min Mg2+-free, 50 μM (S)-AMPA 10 min
# JNK = test: Western blot of JNK phosphorylation in cortical synaptosomes; conditions: for phosphorylation of JNK (p-JNK/JNK) vs. control=100%: wild-type synaptosomes, stimulus alone (100 μM NMDA 10 min Mg2+-free; AMPA 10 min; KCl 90 s)
# [2] = tested on: presynaptic NMDA receptors; test: mEPSC patch-clamp recording in cortex slices (NMDA-dependent presynaptic glutamate release); type: cell-based, mouse; conditions: for effect on D-AP5 block of NMDA presynaptic receptor (mEPSC inter-events): peptide added separately at 10 μM, 30 min before recording
# [3] = tested on: presynaptic NMDA receptors; test: Paired-pulse ratio of evoked EPSCs, patch-clamp in entorhinal cortex slices; type: cell-based, mouse; conditions: D-AP5 50 μM perfusion, C57BL6/J slices
# Protocol: The presynaptic NMDA receptors on the glutamatergic terminals are activated by the spontaneously-released glutamate and, by means of a positive feedback mechanism, determine a tonic liberation of glutamate. Electrophysiological recordings were made in order to investigate the functional role of JNK in the release of glutamate. For this reason, a parameter termed paired-pulse facilitation (PPF) was measured from pyramidal neurons of cerebral slices of entorhinal cortex (EC)-obtained from adult mice C57BL6/J incubated with or without the inhibitor of JNK, L-JNKi1 (2 μM for 30 min). Such paired-pulse facilitation (PPF) is a paradigm studied by means of the electrophysiological recording technique in patch-clamp configuration.
# Syntaxin 1a = test: Western blot of STX1a (S14) phosphorylation in synaptosomes; type: cell-based, mouse
# [4] = synaptosomes treated with D-AP5
molecule,measurement,setting,value
[Cl-].[K+] [KCl],exocytotic release of [3H] D-Asp vs. control,[1],158±37%
same,phosphorylation of JNK (p-JNK/JNK) vs. control=100%,JNK,unable to increase the phosphorylation of JNK
Cc1onc(O)c1C[C@H](N)C(=O)O [(S)-AMPA],exocytotic release of [3H] D-Asp vs. control,[1],98±11%
same,phosphorylation of JNK (p-JNK/JNK) vs. control=100%,JNK,unable to increase the phosphorylation of JNK
GRKKRRQRRRPPMSEYNATQSDYRER (SEQ ID NO: 8) (Muridae) [JGRi2],effect on D-AP5 block of NMDA presynaptic receptor (mEPSC inter-events),[2],reduced the functionality of the inhibitor D-AP5
NC(CCCP(=O)(O)O)C(=O)O [D-AP5],paired-pulse ratio (PPR) at 50 ms interval,[3],irreversibly reduced
same,mEPSC amplitude,[2],neither the cumulative amplitude nor the mean of the same events were affected; also recorded: never affected
same,mEPSC inter-event intervals,[2],increase of the cumulative distribution of the inter-event intervals
same,mEPSC inter-event intervals and amplitude,[2],no significant changes
same,mEPSC inter-event intervals (IEI),"[2]; D-AP5, C57BL6/J slices, tetrodotoxin, picrotoxin, MK-801 in pipette",reversible increase
same,change in pSTX1a vs. Ctrl (100%) with D-AP5,Syntaxin 1a; [4],−10±7.2%
same,change in pJNK vs. Ctrl (100%) with D-AP5,JNK; [4],+10±8.9%
GRKKRRQRRRPPIEQSIEQEEGLNRS (SEQ ID NO: 5) (Muridae) [JGRi1],effect on D-AP5 block of NMDA presynaptic receptor (mEPSC inter-events),[2],reduced the functionality of the inhibitor D-AP5
"CN[C@H](CC(=O)O)C(=O)O [NMDA, N-Methyl D-Aspartate]",exocytotic release of [3H] D-Asp vs. control,[1],202±21%
same,NMDA-induced release of [3H] D-Asp with respect to the overflow basal,"[1]; JNK2-KO mouse synaptosomes, NMDA 10 min",28±19%
same,phosphorylation of STX1a (S14) after NMDA alone,Syntaxin 1a; NMDA 10 min,slight but non-significant decrease
same,NMDA-induced phosphorylation of JNK,JNK; JNK2-KO mouse synaptosomes,totally eliminated
same,NMDA-induced increase of pJNK vs. control=100%,JNK; JNK3-KO mouse synaptosomes,+76±10%
